Measured values taken from US20020107248A1, “Method for treating patients with neoplasia by administering substituted sulfonyl indenyl acetic and propionic acids and esters thereof” (priority 1991, published 2002).

Test system: colonic bacteria

CC1=C(CC(=O)O)c2cc(F)ccc2C1=Cc1ccc(S(C)(=O)=O)cc1 [Example 10, α-(1-ρ-Methylsulfonylbenzylidene)-2-Methyl-5-Fluoro-3-Indenyl-Acetic Acid] was tested, and the “conversion of the sulfonyl compound in human fecal material” value was “converted to an unknown derivative”.
